Results reported in patent US11945822B2, “Pyrazolo-triazine and/or pyrazolo-pxrimidine derivatives as selective inhibitor of cyclin dependent kinase” (QURIENT CO., LTD., priority 2018, dated 2024).
Like-named read-outs stand apart in the source and are kept apart here.

Key:
[1] = biological target: T1, CDK1/Cyclin B (Homo sapiens, UniProt P06493); assay: Enzymatic assay for CDK1 (FRET based LANCE Ultra kinase assay); type: biochemical
T1 construct: purchased Invitrogen PR4768C
Method: (§1) Enzymatic Binding Assay Protocol for CDK1, CDK2, CDK5 and CDK7
(§2) Inhibition activity of the respective compound on CDK kinase under Km value of ATP was tested in FRET based The LANCE® Ultra kinase assay (Perkin Elmer), which uses a ULight™-labeled peptide substrate and an appropriate Europium-labeled anti-phospho-antibody. Test compounds were made with DMSO solutions, and then 4-fold serial dilutions for 8 doses were prepared using automated liquid handler (POD810, LABCYTE) and 80 nL/well of diluted compound solutions were added into the 384-well plates (Greiner, Cat #784075). And then 68 nM of ULight-MBP peptide (Perkin Elmer, Cat #TRF0109-M) and 5 ul/well of ATP (Sigma, Cat #A7699) were added to the plate. After 1 min centrifugation at 1000 rpm, Purified CDKs/Cyclin complex were added following concentrations respectively. 24 uM for CDK1/Cyclin B (Invitrogen, Cat #PR4768C), 22 uM for CDK2/Cyclin A (Invitrogen, Cat #PV6290), 10 uM for CDK5/p25 (Invitrogen, Cat #PR8543B) and […] for CDK7/Cyclin H/MNAT1 (Invitrogen, Cat #PR6749B) were added to the each corresponding plate for CDK1, CDK2, CDK5 and CDK7. Incubate at 23° C. for 60 min and then Eu-labeled anti-phospho-Myelin Basic Protein (PE, Cat #TRF0201-M) and EDTA (Invitrogen, Cat #15575038) mixture in Lance Detection Buffer (Perkin Elmer, Cat #CR97100) was added in each well. After additional incubation at 23° C. for 60 min, test articles were measured the fluorescence using Envision leader (Perkin Elmer, USA) [Laser as excitation light; […] as the first and the second emission filter]. Data was analyzed using XL Fit software.

[2] = biological target: T2, CDK2/Cyclin A (Homo sapiens, UniProt P24941); assay: Enzymatic assay for CDK2 (FRET based LANCE Ultra kinase assay); type: biochemical
T2 construct: purchased Invitrogen PV6290
Method: as §1, §2

[3] = biological target: T3, CDK5/p25 (Homo sapiens, UniProt Q00535); assay: Enzymatic assay for CDK5 (FRET based LANCE Ultra kinase assay); type: biochemical
T3 construct: purchased Invitrogen PR8543B
Method: as §1, §2

[4] = biological target: T4, CDK7/Cyclin H/MNAT1 (Homo sapiens, UniProt P50613); assay: Enzymatic assay for CDK7 (FRET based LANCE Ultra kinase assay); type: biochemical
T4 construct: purchased Invitrogen PR6749B
Method: as §1
Inhibition activity of the respective compound on CDK kinase under Km value of ATP was tested in FRET based The LANCE® Ultra kinase assay (Perkin Elmer), which uses a ULight™-labeled peptide substrate and an appropriate Europium-labeled anti-phospho-antibody. […] After 1 min centrifugation at 1000 rpm, Purified CDKs/Cyclin complex were added following concentrations respectively. […] Data was analyzed using XL Fit software.

[5] = tested on: HCT116; assay: Cellular HCT116 viability assay (CellTiter-Glo, 72 hours); type: cell-based; settings: Homo sapiens, HCT-116
Method: (§3) All cell lines were routinely tested for mycoplasma.
(§4) The effect of the CDK7 inhibitor to inhibit the growth of target cancer cells was evaluated through the 72 hours time period of viability assay. Briefly, the candidate cell line ware plated in 96 well plate at the following density of cells respectively. […] DMSO solvent without compound served as a control and final DMSO concentration less than 0.1%. After 72 hours of incubation at 37° C., 5% CO2 incubator, cells were analyzed for the viability using the CellTiter-Glo Luminescent Cell Viability Assay (Promega, Cat #G7570). All viability assays were performed in duplicate and Luminescence was read using an Envision (Perkin Elmer, USA). Data was analyzed using XLfit software.

[6] = tested on: H460; assay: Cellular H460 viability assay (CellTiter-Glo, 72 hours); type: cell-based; settings: Homo sapiens, NCI-H460
Method: as §3, §4

[7] = tested on: MV4-11; assay: Cellular MV4-11 viability assay (CellTiter-Glo, 72 hours); type: cell-based; settings: Homo sapiens
Method: as §3, §4

[8] = read-out: CDK1 enzymatic activity (IC50 range)
[9] = read-out: CDK2 enzymatic activity (IC50 range)
[10] = read-out: CDK5 enzymatic activity (IC50 range)
[11] = read-out: CDK7 enzymatic activity (IC50 range)

T1 sequence (P06493 whole entry): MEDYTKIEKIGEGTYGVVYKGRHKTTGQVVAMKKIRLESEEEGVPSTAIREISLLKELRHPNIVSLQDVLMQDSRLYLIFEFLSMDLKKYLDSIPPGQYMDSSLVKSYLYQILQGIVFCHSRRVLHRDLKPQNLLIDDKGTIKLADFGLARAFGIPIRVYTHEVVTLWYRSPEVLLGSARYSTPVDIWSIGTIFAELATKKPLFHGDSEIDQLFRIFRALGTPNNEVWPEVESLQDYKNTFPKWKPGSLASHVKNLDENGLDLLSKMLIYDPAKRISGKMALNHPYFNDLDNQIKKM
T1 sequence (P14635 whole entry partner): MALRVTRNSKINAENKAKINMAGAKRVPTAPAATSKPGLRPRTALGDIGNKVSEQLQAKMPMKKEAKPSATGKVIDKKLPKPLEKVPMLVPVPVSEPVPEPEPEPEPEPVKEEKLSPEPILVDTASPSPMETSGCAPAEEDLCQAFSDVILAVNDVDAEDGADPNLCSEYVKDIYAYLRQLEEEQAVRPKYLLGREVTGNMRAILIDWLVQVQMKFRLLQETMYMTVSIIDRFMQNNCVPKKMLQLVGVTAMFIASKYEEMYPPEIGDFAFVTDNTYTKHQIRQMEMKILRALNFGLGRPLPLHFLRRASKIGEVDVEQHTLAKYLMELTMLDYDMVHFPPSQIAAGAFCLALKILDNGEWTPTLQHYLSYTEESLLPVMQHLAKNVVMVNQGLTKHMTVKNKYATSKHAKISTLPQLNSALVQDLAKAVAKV
T3 sequence (Q00535 whole entry): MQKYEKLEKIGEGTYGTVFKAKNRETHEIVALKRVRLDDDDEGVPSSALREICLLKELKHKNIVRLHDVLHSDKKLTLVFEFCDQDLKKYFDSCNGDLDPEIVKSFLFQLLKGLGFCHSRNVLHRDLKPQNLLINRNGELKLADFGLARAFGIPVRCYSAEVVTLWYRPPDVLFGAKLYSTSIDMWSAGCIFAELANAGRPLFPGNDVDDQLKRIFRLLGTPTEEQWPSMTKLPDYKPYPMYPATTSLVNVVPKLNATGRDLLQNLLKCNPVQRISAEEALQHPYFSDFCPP
T3 sequence (Q15078 99-307 partner limits assumed): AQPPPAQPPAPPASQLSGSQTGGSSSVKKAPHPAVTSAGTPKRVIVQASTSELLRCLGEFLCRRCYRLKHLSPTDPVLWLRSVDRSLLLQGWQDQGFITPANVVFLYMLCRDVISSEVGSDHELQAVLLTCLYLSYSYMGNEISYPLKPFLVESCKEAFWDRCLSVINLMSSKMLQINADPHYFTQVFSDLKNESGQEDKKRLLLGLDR
T4 sequence (P50613 whole entry): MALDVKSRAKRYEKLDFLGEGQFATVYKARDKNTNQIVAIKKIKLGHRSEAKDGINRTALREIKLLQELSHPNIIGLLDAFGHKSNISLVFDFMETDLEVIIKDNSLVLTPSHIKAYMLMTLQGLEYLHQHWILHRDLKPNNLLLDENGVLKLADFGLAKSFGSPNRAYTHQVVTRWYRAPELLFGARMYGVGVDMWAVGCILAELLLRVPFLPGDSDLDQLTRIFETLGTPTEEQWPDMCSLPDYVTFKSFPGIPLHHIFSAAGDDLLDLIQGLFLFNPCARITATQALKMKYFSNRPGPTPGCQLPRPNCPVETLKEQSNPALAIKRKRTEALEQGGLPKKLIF
T4 sequence (P51946 whole entry partner): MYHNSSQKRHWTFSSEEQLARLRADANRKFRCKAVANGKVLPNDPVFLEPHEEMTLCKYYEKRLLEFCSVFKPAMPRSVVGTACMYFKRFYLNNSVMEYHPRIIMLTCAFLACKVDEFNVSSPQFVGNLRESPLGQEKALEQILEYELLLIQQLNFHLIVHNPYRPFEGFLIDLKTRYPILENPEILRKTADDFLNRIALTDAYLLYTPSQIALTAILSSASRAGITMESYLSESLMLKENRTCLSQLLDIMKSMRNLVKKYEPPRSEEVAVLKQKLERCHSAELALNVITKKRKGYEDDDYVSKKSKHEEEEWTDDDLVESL
T4 sequence (P51948 whole entry partner): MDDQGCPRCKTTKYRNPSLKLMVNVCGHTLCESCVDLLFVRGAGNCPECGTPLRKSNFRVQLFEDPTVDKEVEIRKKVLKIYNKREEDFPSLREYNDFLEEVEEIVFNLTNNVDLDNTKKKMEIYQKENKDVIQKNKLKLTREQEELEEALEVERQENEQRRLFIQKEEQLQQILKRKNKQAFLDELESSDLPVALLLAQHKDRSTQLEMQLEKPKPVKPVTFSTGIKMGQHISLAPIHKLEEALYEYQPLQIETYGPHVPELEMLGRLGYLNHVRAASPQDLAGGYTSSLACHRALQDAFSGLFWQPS

SMILES | IC50 [1, 8] | IC50 [2, 9] | IC50 [3, 10] | CDK1/CDK7: Selectivity of CDK7 inhibition over CDK1 inhibition ([4]; CDK7 over CDK1) | CDK2/CDK7: Selectivity of CDK7 inhibition over CDK2 inhibition ([4]; CDK7 over CDK2) | CDK5/CDK7: Selectivity of CDK7 inhibition over CDK5 inhibition ([4]; CDK7 over CDK5) | IC50 [4, 11] | IC50 [5] | IC50 [6] | IC50 [7] | IC50 ([1]; read-out: CDK1 enzymatic activity (IC50 activity range)) | IC50 ([2]; read-out: CDK2 enzymatic activity (IC50 activity range)) | IC50 ([3]; read-out: CDK5 enzymatic activity (IC50 activity range)) | CDK1/CDK7: Selectivity of CDK7 inhibition over CDK1 inhibition ([4]; CDK1/CDK7) | CDK2/CDK7: Selectivity of CDK7 inhibition over CDK2 inhibition ([4]; CDK2/CDK7) | CDK5/CDK7: Selectivity of CDK7 inhibition over CDK5 inhibition ([4]; CDK5/CDK7) | IC50 ([4]; read-out: CDK7 enzymatic activity (IC50 activity range))
Cc1cccc(-c2cc(CO)nn2C)c1CNc1nc(N2CCC(N)CC2)nc2c(C(C)C)cnn12 [Compound 214] | > 1000 nM | > 1000 nM | > 1000 nM | A (A=greater than 200 fold) | A (A=greater than 200 fold) | A (A=greater than 200 fold) | < 100 nM | < 1000 nM | < 1000 nM | < 1000 nM |  |  |  |  |  |  | 
CC(C)c1cnn2c(NCc3ccccc3-n3ccc(C(C)(C)O)n3)nc(NCC3CCNCC3)nc12 [Compound 224] | > 1000 nM | > 1000 nM | > 1000 nM | A (A=greater than 200 fold) | A (A=greater than 200 fold) | A (A=greater than 200 fold) | < 100 nM | < 1000 nM | < 1000 nM | < 1000 nM |  |  |  |  |  |  | 
CC(C)c1cnn2c(NCc3c(Cl)cccc3-n3ccc(N4CCOCC4)n3)nc(N3CCC(N)CC3)nc12 [Compound 202] | > 1000 nM | > 1000 nM | > 1000 nM | A (A=greater than 200 fold) | A (A=greater than 200 fold) | A (A=greater than 200 fold) | < 100 nM | < 1000 nM | < 1000 nM | < 1000 nM |  |  |  |  |  |  | 
CC(C)c1cnn2c(NCc3ccccc3-c3ccc4ccccc4n3)nc(NCC3CCNCC3O)nc12 (centres unmarked) [Compound 222] | > 1000 nM | 100 to 1000 nM | 100 to 1000 nM | A (A=greater than 200 fold) | A (A=greater than 200 fold) | A (A=greater than 200 fold) | < 100 nM | < 1000 nM | < 1000 nM | < 1000 nM |  |  |  |  |  |  | 
CC[C@@H](N)COc1nc(NCc2ccccc2-c2ccc3ccccc3n2)n2ncc(C(C)C)c2n1 [Compound 237] | > 1000 nM | > 1000 nM | > 1000 nM | A (A=greater than 200 fold) | A (A=greater than 200 fold) | A (A=greater than 200 fold) | < 100 nM | 1000 to 10000 nM | 1000 to 10000 nM | 1000 to 10000 nM |  |  |  |  |  |  | 
CC(C)c1cnn2c(NCc3c(Cl)cccc3-n3ccc(C(=O)NC4COC4)n3)nc(N3CCC(N)CC3)nc12 [Compound 205] | > 1000 nM | > 1000 nM | 100 to 1000 nM | A (A=greater than 200 fold) | A (A=greater than 200 fold) | B (B=less than 200 fold, but greater than 20 fold) | < 100 nM | < 1000 nM | < 1000 nM | < 1000 nM |  |  |  |  |  |  | 
CNC(=O)c1cc2cn(-c3ccccc3CNc3nc(N4CCC(N)CC4)nc4c(C(C)C)cnn34)nc2cc1F [Compound 157] | > 1000 nM | 100 to 1000 nM | 100 to 1000 nM | A (A=greater than 200 fold) | A (A=greater than 200 fold) | B (B=less than 200 fold, but greater than 20 fold) | < 100 nM | < 1000 nM | < 1000 nM | < 1000 nM |  |  |  |  |  |  | 
CC(C)c1cnn2c(NCc3ccccc3-n3ccc(C(C)(C)O)n3)nc(N3CCC(N)CC3)nc12 [Compound 236] | 100 to 1000 nM | 100 to 1000 nM | 100 to 1000 nM | A (A=greater than 200 fold) | B (B=less than 200 fold, but greater than 20 fold) | B (B=less than 200 fold, but greater than 20 fold) | < 100 nM | < 1000 nM | < 1000 nM | < 1000 nM |  |  |  |  |  |  | 
CC(C)c1cnn2c(NCc3ccccc3-c3ccc4ccccc4n3)cc(OCC3CCNCC3)nc12 [Compound 213] | > 1000 nM | > 1000 nM | > 1000 nM | A (A=greater than 200 fold) | A (A=greater than 200 fold) | A (A=greater than 200 fold) | < 100 nM | 1000 to 10000 nM | 1000 to 10000 nM | 1000 to 10000 nM |  |  |  |  |  |  | 
CC(C)c1cnn2c(NCc3ccccc3-n3cc(N4CCOCC4)cn3)nc(N3CCC(N)CC3)nc12 [Compound 156] | > 1000 nM | 100 to 1000 nM | 100 to 1000 nM | A (A=greater than 200 fold) | B (B=less than 200 fold, but greater than 20 fold) | B (B=less than 200 fold, but greater than 20 fold) | < 100 nM | < 1000 nM | < 1000 nM | < 1000 nM |  |  |  |  |  |  | 
CC(C)c1cnn2c(NCc3c(Cl)cccc3-n3ccc(CO)n3)nc(N3CCC(N)CC3)nc12 [Compound 207] | > 1000 nM | > 1000 nM | 100 to 1000 nM | A (A=greater than 200 fold) | A (A=greater than 200 fold) | B (B=less than 200 fold, but greater than 20 fold) | < 100 nM | < 1000 nM | < 1000 nM | < 1000 nM |  |  |  |  |  |  | 
Cc1cccc(C)c1CNc1nc(N2CCC(N)CC2)nc2c(C(C)C)cnn12 [Compound 235] | > 1000 nM | > 1000 nM | 100 to 1000 nM | A (A=greater than 200 fold) | B (B=less than 200 fold, but greater than 20 fold) | B (B=less than 200 fold, but greater than 20 fold) | < 100 nM | 1000 to 10000 nM | 1000 to 10000 nM | 1000 to 10000 nM |  |  |  |  |  |  | 
CC(C)c1cnn2c(NCc3c(Cl)cccc3Cl)nc(N3CCC(N)CC3)nc12 [Compound 257] |  |  |  |  |  |  |  | < 1000 nM | < 1000 nM | < 1000 nM | > 1000 nM | 100 to 1000 nM | 100 to 1000 nM | A (A=greater than 200 fold) | B (B=less than 200 fold, but greater than 20 fold) | B (B=less than 200 fold, but greater than 20 fold) | < 100 nM
CC(C)c1cnn2c(NCc3ccccc3-n3ccc(C(C)(C)O)n3)nc(NCC3(O)CCNCC3)nc12 [Compound 229] | > 1000 nM | 100 to 1000 nM | 100 to 1000 nM | B (B=less than 200 fold, but greater than 20 fold) | C (C=less than 20 fold) | C (C=less than 20 fold) | < 100 nM | 1000 to 10000 nM | 1000 to 10000 nM | 1000 to 10000 nM |  |  |  |  |  |  | 
